Measurements taken from PubChem BioAssay AID1963971 (Molecular Pharmacology Branch, DTP, NCI, 2024).
Values joined by “and” are separate entries in the source; they are usually repeats but may differ in a detail not shown here. Equal entries are not always repeated.

System: 953936-095-R-J2-PDC spheroids with HUVEC/MSC, viability
Assay: Anticancer human tumor 953936-095-R-J2-PDC patient-derived cervical squamous cell carcinoma cell line growth inhibition [PI3K]
Details: for viability, T/C: stronger effect = lower value
From the text: Combinatorial screen of targeted agents with the PI3K inhibitors inavolisib, alpelisib, duvelisib, and copanlisib in multi-cell type tumor spheroids
A high-throughput screen of multi-cell type tumor spheroids was designed to identify active combinations of targeted small molecules and PI3K pathway inhibitors. Complex spheroids include a stromal component modeled by human endothelial cells (HUVEC) and fibroblasts modeled by human mesenchymal stem cells (MSCs). The concentration ranges selected for each drug and investigational agent were based upon clinically achievable concentrations if the clinical Cmax of the agent was known.
Compounds. The drugs and investigational agents: inavolisib (NSC800729), alpelisib (NSC765974), duvelisib (NSC772469), copanlisib (NSC816437), ipatasertib (NSC767898), afuresertib (NSC778305), talazoparib (NSC767125), sapanisertib (NSC764658), selumetinib (NSC741078), tovorafenib (DAY101, NSC766906), vemurafenib (NSC761431), ravoxertinib (NSC781343), sotorasib (NSC818433), MRTX1133 (NSC 836407), abemaciclib (NSC 768073), palbociclib (NSC758247), venetoclax (NSC 766270), SY5609 (NSC837396), enzalutamide (NSC755605), and darolutamide (NSC825331), were obtained from the National Cancer Institute (NCI) Developmental Therapeutics Program Chemical Repository. The FDA-approved anticancer drug set is available from the NCI Developmental Therapeutics Program. […] The stock solutions were prepared in dimethyl sulfoxide (DMSO, Sigma-Aldrich, St. Louis, MO, cat. D2650) at 800-fold the tested concentration and stored at -70 degrees C prior to their use. All drugs and investigational agents were tested over a range starting from a high concentration at or near the clinical Cmax and decreasing in half-log increments. If the clinical Cmax for an agent had not been determined, the highest concentration tested was 10 microM.
Cell Culture. All cells were maintained in an incubator at 37 degrees C and 5% CO2 with 95% humidity. The PDC lines were cultured according to standard operating procedures established by the NCI PDMR (https://pdmr.cancer.gov/sops/default.htm). All PDCs were thawed and cultured in Matrigel-coated flasks prepared with a working solution of 1X Ham's F-12 nutrient mix, without supplementation (Invitrogen, Waltham, MA, cat. 11765054), 100 U/mL penicillin-streptomycin (Invitrogen, cat. 15140122), and 2.5% Matrigel (Corning Inc., Corning, NY, cat. 354248) for the first three passages. The 354836-022-R-J1-PDC, 475296-252-R-J1-PDC, and 997726-040-R-J2-PDC lines were cultured in 6A media, which includes advanced DMEM/F-12 (Thermo Fisher Scientific, cat. 12634028), 10 mM HEPES (Thermo Fisher Scientific, cat. 15630080), 1X GlutaMAX supplement (Thermo Fisher Scientific, cat. 35050061), 0.1 mg/mL primocin (InvivoGen, San Diego, CA, cat. ant-pm-2), 10% defined fetal bovine serum, heat inactivated (HyClone Laboratories Inc., Logan, UT, cat. SH30070.03HI), 50% L-WRN conditioned media (ATCC, cat. CRL-3276), 1.25 mM N-Acetyl-L-cysteine (Sigma-Aldrich, cat. A9165), 10 mM nicotinamide (Sigma-Aldrich, cat. N0636), 1X B-27 supplement (Thermo Fisher Scientific, cat. 17504044), 1X N-2 supplement (Thermo Fisher Scientific, cat. 17502048), and 10 microM Y-27632 dihydrochloride (Tocris Bioscience, Bristol, United Kingdom, cat. 1254). The 624824-186-R-J2-PDC line was cultured in 6C/Colon 1B media, which includes all 6A media components plus 50 ng/mL human EGF recombinant protein (Thermo Fisher Scientific, cat. PHG0311). […]

[1] = curve of first compound, second compound 0.0316 µM
[2] = curve of first compound, second compound 0.1 µM
[3] = curve of first compound, second compound 0.316 µM
[4] = curve of first compound, second compound 1 µM
[5] = second compound 0.0316 µM, first compound 0.0316 µM
[6] = second compound 0.0316 µM, first compound 0.1 µM
[7] = second compound 0.0316 µM, first compound 0.316 µM
[8] = second compound 0.0316 µM, first compound 1 µM
[9] = second compound 0.0316 µM, first compound 3.16 µM
[10] = second compound 0.0316 µM, first compound 10 µM
[11] = second compound 0.1 µM, first compound 0.0316 µM
[12] = second compound 0.1 µM, first compound 0.1 µM
[13] = second compound 0.1 µM, first compound 0.316 µM
[14] = second compound 0.1 µM, first compound 1 µM
[15] = second compound 0.1 µM, first compound 3.16 µM
[16] = second compound 0.1 µM, first compound 10 µM
[17] = second compound 0.316 µM, first compound 0.0316 µM
[18] = second compound 0.316 µM, first compound 0.1 µM
[19] = second compound 0.316 µM, first compound 0.316 µM
[20] = second compound 0.316 µM, first compound 1 µM
[21] = second compound 0.316 µM, first compound 3.16 µM
[22] = second compound 0.316 µM, first compound 10 µM
[23] = second compound 1 µM, first compound 0.0316 µM
[24] = second compound 1 µM, first compound 0.1 µM
[25] = second compound 1 µM, first compound 0.316 µM
[26] = second compound 1 µM, first compound 1 µM
[27] = second compound 1 µM, first compound 3.16 µM
[28] = second compound 1 µM, first compound 10 µM
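Also: spheroids exposed to compounds for seven days before read-out.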

`CC1(C)CCC(CN2CCN(c3ccc(C(=O)NS(=O)(=O)c4ccc(NCC5CCOCC5)c([N+](=O)[O-])c4)c(Oc4cnc5[nH]ccc5c4)c3)CC2)=C(c2ccc(Cl)cc2)C1` + CC(Nc1ncnc2nc[nH]c12)c1cc2cccc(Cl)c2c(=O)n1-c1ccccc1 gave an IC50 [1] of 7.41 µM, an IC50 [2] of 6.33 µM and an IC50 [3] of 7.43 µM. It also gave an IC50 [4] of 7.16 µM, an IC50 (curve of first compound, second compound 3.16 µM) of 6.61 µM and an IC50 (curve of first compound, second compound 10 µM) of 4.9 µM. For the same molecule, the viability, T/C [5] was 84.4%, the viability, T/C [6] was 102% and the viability, T/C [7] was 101%. For the same molecule, the viability, T/C [8] was 90.2%, the viability, T/C [9] was 94.7% and the viability, T/C [10] was 34.3%. The viability, T/C [11] was 93.8%, the viability, T/C [12] was 104% and the viability, T/C [13] was 112%. It also gave a viability, T/C [14] of 98%, a viability, T/C [15] of 78.8% and a viability, T/C [16] of 31%. For the same molecule, the viability, T/C [17] was 101%, the viability, T/C [18] was 93.9% and the viability, T/C [19] was 104%. For the same molecule, the viability, T/C [20] was 96.3%, the viability, T/C [21] was 90.5% and the viability, T/C [22] was 35.8%. The viability, T/C [23] was 106%, the viability, T/C [24] was 97.1% and the viability, T/C [25] was 82.5%. It also gave a viability, T/C [26] of 88.7%, a viability, T/C [27] of 88.8% and a viability, T/C [28] of 34.4%. The viability, T/C (second compound 3.16 µM, first compound 0.0316 µM) was 80.4%, the viability, T/C (second compound 3.16 µM, first compound 0.1 µM) was 79.4% and the viability, T/C (second compound 3.16 µM, first compound 0.316 µM) was 80.6%. For the same molecule, the viability, T/C (second compound 3.16 µM, first compound 1 µM) was 80.5%, the viability, T/C (second compound 3.16 µM, first compound 3.16 µM) was 67.7% and the viability, T/C (second compound 3.16 µM, first compound 10 µM) was 39.2%. For the same molecule, the viability, T/C (second compound 10 µM, first compound 0.0316 µM) was 57.5%, the viability, T/C (second compound 10 µM, first compound 0.1 µM) was 70.3% and the viability, T/C (second compound 10 µM, first compound 0.316 µM) was 59.6%. It also gave a viability, T/C (second compound 10 µM, first compound 1 µM) of 60.8%, a viability, T/C (second compound 10 µM, first compound 3.16 µM) of 62% and a viability, T/C (second compound 10 µM, first compound 10 µM) of 31.1%.

In the case of `C#Cc1c(F)ccc2cc(O)cc(-c3ncc4c(N5CC6CCC(C5)N6)nc(OCC56CCCN5CC(F)C6)nc4c3F)c12` (stereo not given), the viability, T/C (compound 0.0316 µM) is reported as 115% [middle of 4 runs], the viability, T/C (compound 0.1 µM) is reported as 97.5% [middle of 4 runs] and the viability, T/C (compound 0.316 µM) is reported as 101% [middle of 4 runs]. For the same molecule, the viability, T/C (compound 1 µM) was 92.4% [middle of 4 runs], the viability, T/C (compound 3.16 µM) was 85.2% [middle of 4 runs] and the viability, T/C (compound 10 µM) was 81% [middle of 4 runs]. It also gave an IC50 (curve of compound) of over 10 µM.

`CC(=O)c1c(C)c2cnc(Nc3ccc(N4CCNCC4)cn3)nc2n(C2CCCC2)c1=O` was tested, and the viability, T/C (compound 0.000316 µM) was 95.2% [middle of 4 runs], the viability, T/C (compound 0.001 µM) was 96.6% [middle of 4 runs] and the viability, T/C (compound 0.00316 µM) was 103% [middle of 4 runs]. For the same molecule, the viability, T/C (compound 0.01 µM) was 97.6% [middle of 4 runs], the viability, T/C (compound 0.0316 µM) was 96.6% [middle of 4 runs] and the viability, T/C (compound 0.1 µM) was 95.7% [middle of 4 runs]. For the same molecule, the IC50 (curve of compound) was over 0.1 µM.

Work on `CC(Cn1ccc(-c2ccc(C#N)c(Cl)c2)n1)NC(=O)c1cc(C(C)O)[nH]n1` (stereo not given) + COc1c(OCCCN2CCOCC2)ccc2c3n(c(=NC(=O)c4cnc(N)nc4)nc12)CCN3 yielded an IC50 (curve of first compound, second compound 0.00316 µM) of over 10 µM, an IC50 (curve of first compound, second compound 0.01 µM) of over 10 µM and an IC50 [1] of under 0.0316 µM. It also gave an IC50 [2] of under 0.0316 µM, an IC50 [3] of under 0.0316 µM and an IC50 [4] of under 0.0316 µM. The viability, T/C (second compound 0.00316 µM, first compound 0.0316 µM) was 80.3%, the viability, T/C (second compound 0.00316 µM, first compound 0.1 µM) was 88.3% and the viability, T/C (second compound 0.00316 µM, first compound 0.316 µM) was 84.1%. It also gave a viability, T/C (second compound 0.00316 µM, first compound 1 µM) of 101%, a viability, T/C (second compound 0.00316 µM, first compound 3.16 µM) of 90.7% and a viability, T/C (second compound 0.00316 µM, first compound 10 µM) of 89.2%. For the same molecule, the viability, T/C (second compound 0.01 µM, first compound 0.0316 µM) was 68.8%, the viability, T/C (second compound 0.01 µM, first compound 0.1 µM) was 71.6% and the viability, T/C (second compound 0.01 µM, first compound 0.316 µM) was 76.3%. The viability, T/C (second compound 0.01 µM, first compound 1 µM) was 71.1%, the viability, T/C (second compound 0.01 µM, first compound 3.16 µM) was 78.9% and the viability, T/C (second compound 0.01 µM, first compound 10 µM) was 70.2%. The viability, T/C [5] was 43.5%, the viability, T/C [6] was 40.9% and the viability, T/C [7] was 42.6%. It also gave a viability, T/C [8] of 39.8%, a viability, T/C [9] of 46.2% and a viability, T/C [10] of 41.1%. The viability, T/C [11] was 19.4%, the viability, T/C [12] was 19.4% and the viability, T/C [13] was 20.7%. It also gave a viability, T/C [14] of 20.3%, a viability, T/C [15] of 21.8% and a viability, T/C [16] of 19.8%. It also gave a viability, T/C [17] of 7.44%, a viability, T/C [18] of 6.25% and a viability, T/C [19] of 7.53%. It also gave a viability, T/C [20] of 6.55%, a viability, T/C [21] of 7.13% and a viability, T/C [22] of 8.7%. The viability, T/C [23] was 1.6%, the viability, T/C [24] was 1.39% and the viability, T/C [25] was 2%. For the same molecule, the viability, T/C [26] was 1.92%, the viability, T/C [27] was 2.08% and the viability, T/C [28] was 1.97%.

With `Cn1ncnc1[C@H]1c2n[nH]c(=O)c3cc(F)cc(c23)N[C@@H]1c1ccc(F)cc1` the viability, T/C (compound 0.000316 µM) was 97.2% [middle of 4 runs], the viability, T/C (compound 0.001 µM) was 101% [middle of 4 runs] and the viability, T/C (compound 0.00316 µM) was 103% [middle of 4 runs]. For the same molecule, the viability, T/C (compound 0.01 µM) was 115% and 101% (2×) and 97.3%, the viability, T/C (compound 0.0316 µM) was 101% (2×) and 96.9% and 92.6% and the viability, T/C (compound 0.1 µM) was 94.8% [middle of 4 runs]. The IC50 (curve of compound) was over 0.1 µM.
